# Test results from the NIST ThermoML archive (doi:10.1016/j.fluid.2015.07.012).
# ± gives the expanded uncertainty stated by the source.
# Experiment: xn = mol fraction of the nth substance listed
# Conditions: Liquid; for viscosity: Capillary tube (Ostwald / Ubbelohde) method; for mass density: Vibrating tube method
compound,measurement,setting,value
CO [methanol] + O,viscosity,"373.2 K, 30000 kPa, x1 = 0.3",0.385 ± 0.013 mPa·s
same,viscosity,"373.2 K, 30000 kPa, x1 = 0.4",0.382 ± 0.013 mPa·s
same,viscosity,"373.2 K, 30000 kPa, x1 = 0.6",0.353 ± 0.013 mPa·s
same,viscosity,"373.2 K, 30000 kPa, x1 = 0.8",0.307 ± 0.012 mPa·s
same,viscosity,"373.2 K, 30000 kPa, x1 = 1",0.259 ± 0.012 mPa·s
same,mass density,"373.2 K, 30000 kPa, x1 = 0.1",939.53 ± 10 kg/m3
same,mass density,"373.2 K, 30000 kPa, x1 = 0.2",911.46 ± 10 kg/m3
same,mass density,"373.2 K, 30000 kPa, x1 = 0.3",883.51 ± 10 kg/m3
same,mass density,"373.2 K, 30000 kPa, x1 = 0.4",858.91 ± 10 kg/m3
same,mass density,"373.2 K, 30000 kPa, x1 = 0.6",817.6 ± 10 kg/m3
same,mass density,"373.2 K, 30000 kPa, x1 = 0.8",780.53 ± 10 kg/m3
same,mass density,"373.2 K, 30000 kPa, x1 = 1",748.83 ± 10 kg/m3
same,viscosity,"373.2 K, 40000 kPa, x1 = 0.1",0.347 ± 0.013 mPa·s
same,viscosity,"373.2 K, 40000 kPa, x1 = 0.2",0.382 ± 0.014 mPa·s
same,viscosity,"373.2 K, 40000 kPa, x1 = 0.3",0.398 ± 0.014 mPa·s
same,viscosity,"373.2 K, 40000 kPa, x1 = 0.4",0.399 ± 0.014 mPa·s
same,viscosity,"373.2 K, 40000 kPa, x1 = 0.6",0.368 ± 0.013 mPa·s
same,viscosity,"373.2 K, 40000 kPa, x1 = 0.8",0.326 ± 0.013 mPa·s
same,viscosity,"373.2 K, 40000 kPa, x1 = 1",0.275 ± 0.012 mPa·s
same,mass density,"373.2 K, 40000 kPa, x1 = 0.1",943.52 ± 10 kg/m3
same,mass density,"373.2 K, 40000 kPa, x1 = 0.2",914.74 ± 10 kg/m3
same,mass density,"373.2 K, 40000 kPa, x1 = 0.3",889.33 ± 10 kg/m3
same,mass density,"373.2 K, 40000 kPa, x1 = 0.4",864.81 ± 10 kg/m3
same,mass density,"373.2 K, 40000 kPa, x1 = 0.6",823.64 ± 10 kg/m3
same,mass density,"373.2 K, 40000 kPa, x1 = 0.8",789.08 ± 10 kg/m3
same,mass density,"373.2 K, 40000 kPa, x1 = 1",758.66 ± 10 kg/m3
same,viscosity,"476.2 K, 10000 kPa, x1 = 0.1",0.141 ± 0.011 mPa·s
same,viscosity,"476.2 K, 10000 kPa, x1 = 0.2",0.14 ± 0.011 mPa·s
same,viscosity,"476.2 K, 10000 kPa, x1 = 0.3",0.136 ± 0.011 mPa·s
same,viscosity,"476.2 K, 10000 kPa, x1 = 0.4",0.129 ± 0.011 mPa·s
same,viscosity,"476.2 K, 10000 kPa, x1 = 0.6",0.115 ± 0.011 mPa·s
same,viscosity,"476.2 K, 10000 kPa, x1 = 0.8",0.101 ± 0.011 mPa·s
same,viscosity,"476.2 K, 10000 kPa, x1 = 1",0.088 ± 0.011 mPa·s
same,mass density,"476.2 K, 10000 kPa, x1 = 0.1",822.65 ± 11 kg/m3
same,mass density,"476.2 K, 10000 kPa, x1 = 0.2",781.47 ± 11 kg/m3
same,mass density,"476.2 K, 10000 kPa, x1 = 0.3",746.74 ± 11 kg/m3
same,mass density,"476.2 K, 10000 kPa, x1 = 0.4",714.67 ± 10 kg/m3
same,mass density,"476.2 K, 10000 kPa, x1 = 0.6",664.45 ± 10 kg/m3
same,mass density,"476.2 K, 10000 kPa, x1 = 0.8",617.54 ± 10 kg/m3
same,mass density,"476.2 K, 10000 kPa, x1 = 1",576.84 ± 10 kg/m3
same,viscosity,"476.2 K, 20000 kPa, x1 = 0.1",0.144 ± 0.011 mPa·s
same,viscosity,"476.2 K, 20000 kPa, x1 = 0.2",0.143 ± 0.011 mPa·s
same,viscosity,"476.2 K, 20000 kPa, x1 = 0.3",0.144 ± 0.011 mPa·s
same,viscosity,"476.2 K, 20000 kPa, x1 = 0.4",0.138 ± 0.011 mPa·s
same,viscosity,"476.2 K, 20000 kPa, x1 = 0.6",0.123 ± 0.011 mPa·s
same,viscosity,"476.2 K, 20000 kPa, x1 = 0.8",0.113 ± 0.011 mPa·s
same,viscosity,"476.2 K, 20000 kPa, x1 = 1",0.1 ± 0.011 mPa·s
same,mass density,"476.2 K, 20000 kPa, x1 = 0.1",831.4 ± 11 kg/m3
same,mass density,"476.2 K, 20000 kPa, x1 = 0.2",792.25 ± 11 kg/m3
same,mass density,"476.2 K, 20000 kPa, x1 = 0.3",760.72 ± 11 kg/m3
same,mass density,"476.2 K, 20000 kPa, x1 = 0.4",730.97 ± 10 kg/m3
same,mass density,"476.2 K, 20000 kPa, x1 = 0.6",685.36 ± 10 kg/m3
same,mass density,"476.2 K, 20000 kPa, x1 = 0.8",647.18 ± 10 kg/m3
same,mass density,"476.2 K, 20000 kPa, x1 = 1",612.56 ± 10 kg/m3
same,viscosity,"476.2 K, 30000 kPa, x1 = 0.1",0.148 ± 0.011 mPa·s
same,viscosity,"476.2 K, 30000 kPa, x1 = 0.2",0.15 ± 0.011 mPa·s
same,viscosity,"476.2 K, 30000 kPa, x1 = 0.3",0.146 ± 0.011 mPa·s
same,viscosity,"476.2 K, 30000 kPa, x1 = 0.4",0.144 ± 0.011 mPa·s
same,viscosity,"476.2 K, 30000 kPa, x1 = 0.6",0.131 ± 0.011 mPa·s
same,viscosity,"476.2 K, 30000 kPa, x1 = 0.8",0.122 ± 0.011 mPa·s
same,viscosity,"476.2 K, 30000 kPa, x1 = 1",0.109 ± 0.011 mPa·s
same,mass density,"476.2 K, 30000 kPa, x1 = 0.1",838.61 ± 11 kg/m3
same,mass density,"476.2 K, 30000 kPa, x1 = 0.2",802.47 ± 11 kg/m3
same,mass density,"476.2 K, 30000 kPa, x1 = 0.3",772.18 ± 10 kg/m3
same,mass density,"476.2 K, 30000 kPa, x1 = 0.4",744.11 ± 10 kg/m3
same,mass density,"476.2 K, 30000 kPa, x1 = 0.6",703.08 ± 10 kg/m3
same,mass density,"476.2 K, 30000 kPa, x1 = 0.8",668.6 ± 10 kg/m3
same,mass density,"476.2 K, 30000 kPa, x1 = 1",636.82 ± 10 kg/m3
same,viscosity,"476.2 K, 40000 kPa, x1 = 0.1",0.151 ± 0.011 mPa·s
same,viscosity,"476.2 K, 40000 kPa, x1 = 0.2",0.152 ± 0.011 mPa·s
same,viscosity,"476.2 K, 40000 kPa, x1 = 0.3",0.152 ± 0.011 mPa·s
same,viscosity,"476.2 K, 40000 kPa, x1 = 0.4",0.149 ± 0.011 mPa·s
same,viscosity,"476.2 K, 40000 kPa, x1 = 0.6",0.14 ± 0.011 mPa·s
same,viscosity,"476.2 K, 40000 kPa, x1 = 0.8",0.129 ± 0.011 mPa·s
same,viscosity,"476.2 K, 40000 kPa, x1 = 1",0.116 ± 0.011 mPa·s
same,mass density,"476.2 K, 40000 kPa, x1 = 0.1",845.82 ± 11 kg/m3
same,mass density,"476.2 K, 40000 kPa, x1 = 0.2",810.27 ± 11 kg/m3
same,mass density,"476.2 K, 40000 kPa, x1 = 0.3",780.67 ± 10 kg/m3
same,mass density,"476.2 K, 40000 kPa, x1 = 0.4",754.89 ± 10 kg/m3
same,mass density,"476.2 K, 40000 kPa, x1 = 0.6",715.13 ± 10 kg/m3
same,mass density,"476.2 K, 40000 kPa, x1 = 0.8",683.43 ± 10 kg/m3
same,mass density,"476.2 K, 40000 kPa, x1 = 1",655.67 ± 10 kg/m3
